Results taken from ChEMBL document CHEMBL1201862, “PubChem BioAssay data set” (2004).
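Cells were grown in 96-well plates and exposed to each compound for 48 hours at five concentrations; endpoints were interpolated linearly between bracketing concentrations, or set to the highest concentration if not reached. At the GI50, growth is halved.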 Active and inactive are the calls of the source. Rule as the data show it: active = GI50 up to about 1.1 µM and inactive = higher.

Legend:
Experiment in all cases: NCI-60 cell line screen, 48 h
786-0 = test system: 786-0
SF-295 = test system: SF-295
M14 = test system: M14
UACC-257 = test system: UACC-257
CAKI-1 = test system: CAKI-1
TK-10 = test system: TK-10
DMS-273 = test system: DMS-273
SK-MEL-28 = test system: SK-MEL-28
SK-MEL-5 = test system: SK-MEL-5
NCI-H23 = test system: NCI-H23
LXFL 529 = test system: LXFL 529
HCT-15 = test system: HCT-15
U-251 = test system: U-251
SNB-75 = test system: SNB-75
RXF 393 = test system: RXF 393
OVCAR-8 = test system: OVCAR-8
K562 = test system: K562
HOP-92 = test system: HOP-92
MOLT-4 = test system: MOLT-4
NCI/ADR-RES = test system: NCI/ADR-RES

## CN1CC(=O)N2Cc3ccccc3-n3cccc3C2C1 (configuration not stated)
786-0
  GI50: > 100 µM (inactive)
SF-295
  GI50: > 100 µM (inactive)
M14
  GI50: > 100 µM (inactive)
UACC-257
  GI50: > 100 µM (inactive)
CAKI-1
  GI50: > 100 µM (inactive)
TK-10
  GI50: > 100 µM (inactive)
DMS-273
  GI50: > 100 µM (inactive)
SK-MEL-28
  GI50: > 100 µM (inactive)
SK-MEL-5
  GI50: > 100 µM (inactive)
NCI-H23
  GI50: > 100 µM (inactive)
LXFL 529
  GI50: > 100 µM (inactive)
HCT-15
  GI50: > 100 µM
U-251
  GI50: > 100 µM (inactive)
SNB-75
  GI50: > 100 µM (inactive)
RXF 393
  GI50: > 100 µM (inactive)
OVCAR-8
  GI50: > 100 µM (inactive)

## NC1=NNC(=O)c2nnc3c(C(=O)O)cnn3c2S1
786-0
  GI50: > 100 µM (inactive)
SF-295
  GI50: > 100 µM (inactive)
M14
  GI50: > 100 µM (inactive)
CAKI-1
  GI50: > 100 µM (inactive)
TK-10
  GI50: > 100 µM (inactive)
SK-MEL-28
  GI50: > 100 µM (inactive)
SK-MEL-5
  GI50: > 100 µM (inactive)
K562
  GI50: > 100 µM (inactive)
NCI-H23
  GI50: > 100 µM (inactive)
LXFL 529
  GI50: > 100 µM (inactive)
U-251
  GI50: > 100 µM (inactive)
SNB-75
  GI50: 47.4 µM (inactive)
RXF 393
  GI50: > 100 µM (inactive)
OVCAR-8
  GI50: > 100 µM (inactive)
HOP-92
  GI50: > 100 µM (inactive)
MOLT-4
  GI50: > 100 µM (inactive)

## CC(=O)Nc1ccc(/C=C2\N=C(c3ccccc3)OC2=O)cc1
786-0
  GI50: > 100 µM (inactive)
SF-295
  GI50: 65.2 µM (inactive)
M14
  GI50: > 100 µM (inactive)
UACC-257
  GI50: > 100 µM (inactive)
TK-10
  GI50: > 100 µM (inactive)
SK-MEL-28
  GI50: > 100 µM (inactive)
SK-MEL-5
  GI50: 57.8 µM (inactive)
K562
  GI50: > 100 µM (inactive)
NCI-H23
  GI50: > 100 µM (inactive)
LXFL 529
  GI50: > 100 µM (inactive)
HCT-15
  GI50: 55.7 µM
U-251
  GI50: > 100 µM (inactive)
SNB-75
  GI50: 64.9 µM (inactive)
RXF 393
  GI50: 82.8 µM (inactive)
OVCAR-8
  GI50: 6.32 µM (inactive)
HOP-92
  GI50: 62.5 µM (inactive)
MOLT-4
  GI50: 87.5 µM (inactive)

## Cc1cc(N(CCC#N)CCC#N)ccc1/C=C1N=C(/C=C\c2ccccc2)N(c2ccc(Cl)cc2)C\1=O
786-0
  GI50: 54.8 µM (inactive)
SF-295
  GI50: 4.57 µM (inactive)
M14
  GI50: 1.29 µM (inactive)
UACC-257
  GI50: > 54.6 µM (inactive)
CAKI-1
  GI50: > 24.3 µM (inactive)
TK-10
  GI50: > 53.3 µM (inactive)
DMS-273
  GI50: 0.288 µM (active)
SK-MEL-28
  GI50: 5.46 µM (inactive)
SK-MEL-5
  GI50: 0.43 µM (active)
NCI/ADR-RES
  GI50: > 100 µM (inactive)
K562
  GI50: 0.607 µM (active)
NCI-H23
  GI50: 36.6 µM (inactive)
HCT-15
  GI50: 0.718 µM
U-251
  GI50: > 28.6 µM (inactive)
SNB-75
  GI50: > 100 µM (inactive)
RXF 393
  GI50: > 100 µM (inactive)
OVCAR-8
  GI50: > 40.8 µM (inactive)
HOP-92
  GI50: > 95.7 µM (inactive)
MOLT-4
  GI50: 25 µM (inactive)

## CCOC(=O)/C=C/c1ccccn1
786-0
  GI50: > 100 µM (inactive)
SF-295
  GI50: > 100 µM (inactive)
M14
  GI50: > 100 µM (inactive)
UACC-257
  GI50: > 100 µM (inactive)
CAKI-1
  GI50: > 100 µM (inactive)
TK-10
  GI50: > 100 µM (inactive)
SK-MEL-28
  GI50: > 100 µM (inactive)
SK-MEL-5
  GI50: > 100 µM (inactive)
K562
  GI50: > 100 µM (inactive)
NCI-H23
  GI50: > 100 µM (inactive)
LXFL 529
  GI50: > 100 µM (inactive)
HCT-15
  GI50: > 100 µM
U-251
  GI50: > 100 µM (inactive)
SNB-75
  GI50: > 100 µM (inactive)
OVCAR-8
  GI50: > 100 µM (inactive)
HOP-92
  GI50: > 100 µM (inactive)
MOLT-4
  GI50: > 100 µM (inactive)

## O=S1(=O)c2ccccc2NC(c2ccc3ccccc3c2)CC1c1ccccc1F (configuration not stated)
786-0
  GI50: > 100 µM (inactive)
SF-295
  GI50: > 100 µM (inactive)
M14
  GI50: > 100 µM (inactive)
UACC-257
  GI50: > 100 µM (inactive)
CAKI-1
  GI50: > 100 µM (inactive)
TK-10
  GI50: > 100 µM (inactive)
DMS-273
  GI50: > 100 µM (inactive)
SK-MEL-28
  GI50: > 100 µM (inactive)
SK-MEL-5
  GI50: > 100 µM (inactive)
K562
  GI50: > 100 µM (inactive)
NCI-H23
  GI50: > 100 µM (inactive)
HCT-15
  GI50: > 100 µM
SNB-75
  GI50: > 100 µM (inactive)
RXF 393
  GI50: > 100 µM (inactive)
OVCAR-8
  GI50: > 100 µM (inactive)
MOLT-4
  GI50: > 100 µM (inactive)

## CCOc1cc2c(cnc3c4cc(OC)c(OC)cc4ccc23)cc1OC
786-0
  GI50: > 100 µM (inactive)
SF-295
  GI50: > 100 µM (inactive)
M14
  GI50: > 100 µM (inactive)
UACC-257
  GI50: > 100 µM (inactive)
CAKI-1
  GI50: > 100 µM (inactive)
TK-10
  GI50: > 100 µM (inactive)
SK-MEL-28
  GI50: > 100 µM (inactive)
SK-MEL-5
  GI50: > 100 µM (inactive)
K562
  GI50: > 100 µM (inactive)
NCI-H23
  GI50: > 100 µM (inactive)
LXFL 529
  GI50: > 100 µM (inactive)
HCT-15
  GI50: > 100 µM
U-251
  GI50: > 100 µM (inactive)
SNB-75
  GI50: > 100 µM (inactive)
OVCAR-8
  GI50: > 100 µM (inactive)
MOLT-4
  GI50: > 100 µM (inactive)

## CC(=O)OCC(OC(C)=O)C(OC(C)=O)C(OC(C)=O)C(=O)CNn1c(-c2ccccc2)nc2ccc(Br)cc2c1=O (configuration not stated)
786-0
  GI50: > 100 µM (inactive)
SF-295
  GI50: > 100 µM (inactive)
M14
  GI50: > 100 µM (inactive)
UACC-257
  GI50: > 100 µM (inactive)
CAKI-1
  GI50: 87.5 µM (inactive)
DMS-273
  GI50: > 100 µM (inactive)
SK-MEL-28
  GI50: > 100 µM (inactive)
SK-MEL-5
  GI50: > 100 µM (inactive)
K562
  GI50: > 100 µM (inactive)
NCI-H23
  GI50: > 100 µM (inactive)
LXFL 529
  GI50: > 100 µM (inactive)
HCT-15
  GI50: > 100 µM
U-251
  GI50: > 100 µM (inactive)
SNB-75
  GI50: > 100 µM (inactive)
RXF 393
  GI50: > 100 µM (inactive)
OVCAR-8
  GI50: > 100 µM (inactive)
MOLT-4
  GI50: 93.3 µM (inactive)

## O=C1CCSC2=C1SCc1sccc12
786-0
  GI50: > 100 µM (inactive)
SF-295
  GI50: > 100 µM (inactive)
M14
  GI50: > 100 µM (inactive)
UACC-257
  GI50: > 100 µM (inactive)
CAKI-1
  GI50: > 100 µM (inactive)
TK-10
  GI50: > 100 µM (inactive)
SK-MEL-28
  GI50: > 100 µM (inactive)
SK-MEL-5
  GI50: > 100 µM (inactive)
K562
  GI50: > 100 µM (inactive)
NCI-H23
  GI50: > 100 µM (inactive)
LXFL 529
  GI50: > 100 µM (inactive)
HCT-15
  GI50: > 100 µM
SNB-75
  GI50: 30.5 µM (inactive)
RXF 393
  GI50: > 100 µM (inactive)
OVCAR-8
  GI50: > 100 µM (inactive)
HOP-92
  GI50: > 100 µM (inactive)
MOLT-4
  GI50: > 100 µM (inactive)

## O=C1CCCc2c(O)ccc(O)c21
786-0
  GI50: > 100 µM (inactive)
SF-295
  GI50: > 100 µM (inactive)
M14
  GI50: > 100 µM (inactive)
UACC-257
  GI50: > 100 µM (inactive)
TK-10
  GI50: > 100 µM (inactive)
DMS-273
  GI50: > 100 µM (inactive)
SK-MEL-28
  GI50: > 100 µM (inactive)
SK-MEL-5
  GI50: > 100 µM (inactive)
K562
  GI50: 35.9 µM (inactive)
NCI-H23
  GI50: > 100 µM (inactive)
LXFL 529
  GI50: 44 µM (inactive)
HCT-15
  GI50: > 100 µM
U-251
  GI50: > 100 µM (inactive)
SNB-75
  GI50: 38.5 µM (inactive)
RXF 393
  GI50: > 100 µM (inactive)
OVCAR-8
  GI50: > 100 µM (inactive)
MOLT-4
  GI50: 27.9 µM (inactive)

## COC(=O)c1c2c(c(-c3ccccc3)c3c1-c1nc(Cl)ccc1CC3)CCc1ccc(Cl)nc1-2
786-0
  GI50: > 100 µM (inactive)
SF-295
  GI50: 44.6 µM (inactive)
M14
  GI50: > 100 µM (inactive)
UACC-257
  GI50: > 100 µM (inactive)
CAKI-1
  GI50: > 100 µM (inactive)
TK-10
  GI50: > 100 µM (inactive)
SK-MEL-28
  GI50: > 100 µM (inactive)
SK-MEL-5
  GI50: > 100 µM (inactive)
K562
  GI50: > 100 µM (inactive)
NCI-H23
  GI50: > 100 µM (inactive)
LXFL 529
  GI50: > 100 µM (inactive)
HCT-15
  GI50: > 100 µM
U-251
  GI50: 59.6 µM (inactive)
SNB-75
  GI50: 32.3 µM (inactive)
RXF 393
  GI50: 47.5 µM (inactive)
OVCAR-8
  GI50: 65.2 µM (inactive)
HOP-92
  GI50: 42.2 µM (inactive)
MOLT-4
  GI50: > 100 µM (inactive)

## O=C(NCCCCCCCCCCCCNC(=O)c1cnc2ccccc2n1)c1cnc2ccccc2n1
786-0
  GI50: 31.7 µM (inactive)
SF-295
  GI50: 37 µM (inactive)
M14
  GI50: > 100 µM (inactive)
UACC-257
  GI50: 47.8 µM (inactive)
CAKI-1
  GI50: > 100 µM (inactive)
DMS-273
  GI50: 64.6 µM (inactive)
SK-MEL-28
  GI50: > 100 µM (inactive)
SK-MEL-5
  GI50: 9.59 µM (inactive)
K562
  GI50: > 100 µM (inactive)
LXFL 529
  GI50: 33.7 µM (inactive)
HCT-15
  GI50: > 100 µM
U-251
  GI50: 28.8 µM (inactive)
SNB-75
  GI50: 20.8 µM (inactive)
RXF 393
  GI50: 31.3 µM (inactive)
OVCAR-8
  GI50: 9.4 µM (inactive)
MOLT-4
  GI50: > 100 µM (inactive)
